Measured values reported in PMC7110753, “Dafachronic acid and temperature regulate canonical dauer pathways during Nippostrongylus brasiliensis infectious larvae activation” (Parasites & Vectors, 2020).

Assays:
Cel-DAF-12 (DAF-12) = Cel-DAF-12 (DAF-12) (Caenorhabditis elegans, UniProt G5EFF5); assay: co-transfection luciferase reporter assay in HEK293 cells (agonist, dose response in Fig. 1b); format: cell-based
[1] = system: Nbr-DAF-12 (DAF-12 nuclear hormone receptor); assay: co-transfection luciferase reporter assay in HEK293 cells (agonist)

Cel-DAF-12 (DAF-12), sequence (G5EFF5 whole entry): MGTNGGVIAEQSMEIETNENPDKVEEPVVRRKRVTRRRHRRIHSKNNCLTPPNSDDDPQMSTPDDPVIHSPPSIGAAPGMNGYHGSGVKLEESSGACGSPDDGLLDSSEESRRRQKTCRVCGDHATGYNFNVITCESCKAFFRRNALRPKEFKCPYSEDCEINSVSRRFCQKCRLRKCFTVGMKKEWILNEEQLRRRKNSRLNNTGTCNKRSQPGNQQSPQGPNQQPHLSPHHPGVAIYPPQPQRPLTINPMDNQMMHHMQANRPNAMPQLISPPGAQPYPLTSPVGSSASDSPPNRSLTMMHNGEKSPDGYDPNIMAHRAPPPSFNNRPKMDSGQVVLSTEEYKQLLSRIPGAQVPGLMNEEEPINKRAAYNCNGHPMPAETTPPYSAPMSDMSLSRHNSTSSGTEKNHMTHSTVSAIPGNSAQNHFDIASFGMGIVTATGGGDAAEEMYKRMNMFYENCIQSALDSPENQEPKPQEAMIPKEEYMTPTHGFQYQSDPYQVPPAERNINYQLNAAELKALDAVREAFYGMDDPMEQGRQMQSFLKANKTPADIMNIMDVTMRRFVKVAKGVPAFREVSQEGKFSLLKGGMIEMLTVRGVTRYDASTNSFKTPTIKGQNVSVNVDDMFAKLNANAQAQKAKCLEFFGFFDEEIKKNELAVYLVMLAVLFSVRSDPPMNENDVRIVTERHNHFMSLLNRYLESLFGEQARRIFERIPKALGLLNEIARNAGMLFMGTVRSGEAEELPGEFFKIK

## Δ7-dafachronic acid
Cel-DAF-12 (DAF-12)
  co-transfection luciferase reporter assay in HEK293 cells (agonist, dose respons): responds more weakly to Δ7-dafachronic acid than DAF-12 from either the canine hookworm A. caninum (Aca-DAF-12) or the free-living C. elegans
[1]
  EC50: 0.115 µM
